The record followed here is patent US10139394B2, “Method for controlling cancer metastasis or cancer cell migration by modulating the cellular level of lysyl tRNA synthetase” (Medicinal Bioconvergence Research Center, priority 2008, dated 2018).

This assay relates to A549 cells. The assay can be described thus: Cell migration assay in Transwell chamber. Type of assay: cell-based. The settings on record: laminin 10 μg/ml in lower well, 6 hr, in average, FIG. 24 and 18. The method, then: In FIG. 18, A549 cells were transfected with the indicated plasmids, incubated in the absence and presence of laminin and their effect on cell migration was determined by measuring the migrated cells in transwell chamber as described. The numbers of the cells passed through the membrane were counted and shown in each panel. The experiments were performed three times. In FIG. 19, the cells treated as above were used to determine MMP-2 activity and level by zymography and Western blotting, respectively. In FIG. 20, Breast carcinoma 4T-1 cells were transfected with the indicated siRNA and subcutaneously injected to the back of Balb/C mice. After 21 days, mouse lungs were isolated and tumor nodules over 1 mm in diameter were counted. In FIG. 21, two different 4T-1 cells stably expressing exogenously introduced KRS (KRS-1 and -2) were also inoculated as above and the tumor nodules were counted 30 days after injection. […]
FIGS. 24 to 27 show effect of intracellular and extracellular KRS on cell migration, protein synthesis and cell cycle. In FIG. 24, Migration of A549 cells incubated in the absence of laminin was determined was determined by measuring the migrated cells in Transwell chamber. […] After 6 hr of incubation, the migrant were counted. […] In FIG. 27, A549 cells transfected as indicated were fixed and stained with propidium iodide, and their cell cycle was determined by flow cytometry. […]

For the substance “laminin: laminin (Engelbreth-Holm-Swarm murine sarcoma) from Sigma”, the “Migration of the control cells, enhancement” value was “about 6 fold”.
